Test system: Notch signaling (human Notch1 receptor, hNotch1ΔE, CSL luciferase reporter in HeLa cells)
Test: Notch reporter assay (dual luciferase, HeLa cells transfected with hNotch1ΔE)
Assay type: cell-based
Settings: compounds and controls at 10 μM
Source text: The activation level of Notch signaling can be quantified in vitro reliably by measuring the expression levels of Notch specific target genes. This can be accomplished by the quantification of corresponding mRNA or protein of a particular Notch target gene. Alternatively, cells can be genetically modified to carry a luciferase gene as an artificial Notch target gene, which is expressed in dependence of Notch activity. In this setting, Notch signaling levels can be quantified by measuring the luciferase-derived bioluminescence values.
An according Notch-reporter assay, i.e. a luciferase-based luminescence readout, was used here to quantify the ability of the claimed compounds to augment Notch signaling in a cellular system. […] After 24 hours of transfection, the transfected cells were carefully detached from the dish using 0.5 mM EDTA in PBS and seeded into 96-well plates suitable for luminescence readouts (CORNING, #3610) at 10′000 cells per well. […] Directly after the lysis, first the Firefly and then the Renilla luciferase values were measured consecutively from the same well with a luminescence reader immediately after applying 15 μL per well each of the corresponding enzyme substrates needed to create the luminescence signals (Promega, Dual-Luciferase® Reporter Assay System, #E1910). […]

`Oc1ccc(C=Cc2cc(O)cc(O)c2)cc1` [RES, Resveratrol] was tested, and the “Activity Range: weighted arithmetic mean (AVEw) of double-normalized Notch-reporter luminescence, relative to DMSO basis level of 1.0” value was 1.9 ± 0.5.
